Entries after “also recorded” stand apart in the source; their conditions may differ.
What was measured:
[1] = system: ovarian cancer A2780 xenograft model; test: In vivo xenograft study, ovarian cancer A2780 model; parameters: species or system mice; conditions: for Tumor volume: A2780 xenograft
Description: Compound of Example 2 was selected for in vivo studies in the ovarian cancer A2780 xenograft model. Typically, athymic nude mice (CD-1 nu/nu) or SCID mice are obtained at age 6-8 weeks from vendors and acclimated for a minimum 7-day period. The cancer cells are then implanted into the nude mice. Depending on the specific tumor type, tumors are typically detectable about two weeks following implantation. When tumor sizes reach ˜100-200 mm^3, the animals with appreciable tumor size and shape are randomly assigned into groups of 8 mice each, including one vehicle control group and treatment groups. Dosing varies depending on the purpose and length of each study, which typically proceeds for about 3-4 weeks. Tumor sizes and body weight are typically measured three times per week. In addition to the determination of tumor size changes, the last tumor measurement is used to generate the tumor size change ratio (T/C value), a standard metric developed by the National Cancer Institute for xenograft tumor evaluation. In most cases, % T/C values are calculated using the following formula: % T/C=100×ΔT/ΔC if ΔT>0. When tumor regression occurred (ΔT<0), however, the following formula is used: % T/T0=100×ΔT/T0. Values of <42% are considered significant.
Ovarian Cancer is the 5th most common cancer in women: ˜ 22,280 new cases and 14,240 death in 2016 in US. In China, Ovarian Cancer has more than 100,000 new cases each year. Gemcitabine (intravenous dosing) is the 2nd line SOC of Ovarian Cancer.

[2] = Water solubility observed during formulation for the PK study; assay type: physicochemical; conditions: compared with LY2334737
[3] = Mice PK study: plasma active metabolite Gemcitabine after dosing of prodrug; assay type: in vivo, male CD1 mouse; conditions: single dose 10, 150, 300 mg/kg
Procedure: The pharmacokinetics of compounds were evaluated in male CD1 mouse via Intravenous and Oral Administration. The iv dose was administered as a slow bolus in the Jugular vein, and oral doses were administered by gavage. The formulation is 2.5% DMSO, 10% EtOH, 20% Cremphor EL, 67.5% D5W. The PK time point 5 min, 15, 30 min, 1, 2, 4, 6, 8 hours post dose. Approximately 0.03 mL blood will be collected at each time point. Keep blood at room temperature and collect plasma within 15 min by centrifugation at 4000 g for 5 minutes in a 4° C. centrifuge. Plasma samples will be stored in polypropylene tubes. The plasma samples will be stored in a freezer at −75±15° C. prior to analysis. Concentrations of compounds and the active metaboliste Gemcitabine in the plasma samples will be analyzed using a LC-MS/MS method. WinNonlin (Phoenix, version 6.1) or other similar software will be used for pharmacokinetic calculations. The following pharmacokinetic parameters will be calculated, whenever possible from the plasma concentration versus time data: IV administration: C0, CL, Vd, T1/2, AUCinf, AUClast, MRT, Number of Points for Regression; PO administration: Cmax, Tmax, T1/2, AUCinf, AUClast, F %, Number of Points for Regression. The pharmacokinetic data will be described using descriptive statistics such as mean, standard deviation. […]

[4] = mice, single oral (gavage) dose of 167, 333, or 500 mg/kg; cited from earlier work
[5] = LY2334737 QD, Japanese patients, 2013; cited from earlier work

CCCC(CCC)C(=O)Nc1ccn([C@@H]2O[C@H](COC(=O)C(C)C)[C@@H](OC(=O)[C@@H](N)C(C)C)C2(F)F)c(=O)n1 [Example 2, (2R,3R,5R)-4,4-difluoro-2-[[(2-methylpropanoyl)oxy]methyl]-5-[2-oxo-4-(2-propylpentanamido)-1,2-dihydropyrimidin-1-yl]oxolan-3-yl (2S)-2-amino-3-methylbutanoate]
efficacy compared with Gemcitabine (IV dosing) ([1]; A2780 model, Example 2 oral dosing): better efficacy than Gemcitabine (IV dosing) | Tumor volume ([1]; 75 mg/kg po q4d × 7): 65 mm^3 | water solubility [2]: significant higher water solubility than LY2334737; also recorded: excellent water solubility | PK linearity of active metabolite Gemcitabine [3]: good PK linearity

Nc1ccn([C@@H]2O[C@H](CO)[C@@H](O)C2(F)F)c(=O)n1 [Gemcitabine]
Tumor volume ([1]; 120 mg/kg IV qw × 4): 442 mm^3 | adverse dose-limiting intestinal lesions [4]: moderate-to-marked loss of mucosal epithelium (atrophic enteropathy)

CCCC(CCC)C(=O)Nc1ccn([C@@H]2O[C@H](CO)[C@@H](O)C2(F)F)c(=O)n1 [LY2334737]
hepatic toxicity [5]: unexpected hepatic toxicities were observed
